In ChEMBL document CHEMBL4507276 (2021):

Legend:
[1] = target: P2Y purinoceptor 1 (Rattus norvegicus) (UniProt P49651); assay: P2Y/RAT Eurofins-Panlabs selectivity data (BI); settings: Compound concentration 10.0 uM
[2] = target: Urotensin-2 receptor (Homo sapiens) (UniProt Q9UKP6); assay: UT1/H AG Cerep selectivity data (BI); settings: filed as agonist, Compound concentration 20.0 uM
[3] = target: Death-associated protein kinase 1 (Homo sapiens) (UniProt P53355); assay: DAPK1 Invitrogen selectivity data (BI); settings: Compound concentration 3.0 uM
[4] = target: Serine/threonine-protein kinase PAK 6 (Homo sapiens) (UniProt Q9NQU5); assay: PAK6 Invitrogen selectivity data (BI); settings: Compound concentration 3.0 uM
[5] = target: Protein kinase C delta type (Homo sapiens) (UniProt Q05655); assay: PRKCD Invitrogen selectivity data (BI); settings: Compound concentration 3.0 uM
[6] = target: T1, MAP/microtubule affinity-regulating kinase 4 (Homo sapiens) (UniProt Q96L34); assay: MARK4 Invitrogen selectivity data (BI); settings: Compound concentration 3.0 uM
T1 sequence (whole entry): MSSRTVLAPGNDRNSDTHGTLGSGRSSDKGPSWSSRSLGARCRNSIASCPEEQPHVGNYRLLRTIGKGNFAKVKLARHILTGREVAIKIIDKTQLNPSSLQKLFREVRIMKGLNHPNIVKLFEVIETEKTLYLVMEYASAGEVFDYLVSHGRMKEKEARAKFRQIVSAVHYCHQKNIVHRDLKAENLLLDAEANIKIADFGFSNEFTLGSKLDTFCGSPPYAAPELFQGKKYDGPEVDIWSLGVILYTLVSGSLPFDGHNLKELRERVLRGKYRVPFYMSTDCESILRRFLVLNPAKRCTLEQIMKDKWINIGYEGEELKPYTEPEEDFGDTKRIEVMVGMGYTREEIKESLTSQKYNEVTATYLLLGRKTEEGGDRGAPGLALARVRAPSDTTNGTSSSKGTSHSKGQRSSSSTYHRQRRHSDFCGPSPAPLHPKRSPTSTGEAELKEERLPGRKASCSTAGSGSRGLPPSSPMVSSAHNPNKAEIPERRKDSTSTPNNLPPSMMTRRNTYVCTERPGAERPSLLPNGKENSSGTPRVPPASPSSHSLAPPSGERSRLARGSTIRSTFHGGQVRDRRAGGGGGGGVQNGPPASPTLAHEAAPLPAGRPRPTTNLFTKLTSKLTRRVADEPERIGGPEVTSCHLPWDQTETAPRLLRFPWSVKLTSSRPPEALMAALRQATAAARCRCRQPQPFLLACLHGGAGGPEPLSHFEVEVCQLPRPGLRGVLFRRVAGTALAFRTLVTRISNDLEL

[7] = target: Estrogen receptor (Homo sapiens) (UniProt P03372); assay: ER_ALPHA_AGON Cerep selectivity data (BI); settings: filed as agonist, Compound concentration 20.0 uM
[8] = target: Tyrosine-protein kinase ABL1 (Homo sapiens) (UniProt P00519); assay: ABL_CE Cerep selectivity data (BI); settings: Compound concentration 20.0 uM
[9] = target: Insulin receptor-related protein (Homo sapiens) (UniProt P14616); assay: INSRR Invitrogen selectivity data (BI); settings: Compound concentration 3.0 uM
[10] = target: T2, NUAK family SNF1-like kinase 1 (Homo sapiens) (UniProt O60285); assay: NUAK1 Invitrogen selectivity data (BI); settings: Compound concentration 3.0 uM
T2 sequence (whole entry): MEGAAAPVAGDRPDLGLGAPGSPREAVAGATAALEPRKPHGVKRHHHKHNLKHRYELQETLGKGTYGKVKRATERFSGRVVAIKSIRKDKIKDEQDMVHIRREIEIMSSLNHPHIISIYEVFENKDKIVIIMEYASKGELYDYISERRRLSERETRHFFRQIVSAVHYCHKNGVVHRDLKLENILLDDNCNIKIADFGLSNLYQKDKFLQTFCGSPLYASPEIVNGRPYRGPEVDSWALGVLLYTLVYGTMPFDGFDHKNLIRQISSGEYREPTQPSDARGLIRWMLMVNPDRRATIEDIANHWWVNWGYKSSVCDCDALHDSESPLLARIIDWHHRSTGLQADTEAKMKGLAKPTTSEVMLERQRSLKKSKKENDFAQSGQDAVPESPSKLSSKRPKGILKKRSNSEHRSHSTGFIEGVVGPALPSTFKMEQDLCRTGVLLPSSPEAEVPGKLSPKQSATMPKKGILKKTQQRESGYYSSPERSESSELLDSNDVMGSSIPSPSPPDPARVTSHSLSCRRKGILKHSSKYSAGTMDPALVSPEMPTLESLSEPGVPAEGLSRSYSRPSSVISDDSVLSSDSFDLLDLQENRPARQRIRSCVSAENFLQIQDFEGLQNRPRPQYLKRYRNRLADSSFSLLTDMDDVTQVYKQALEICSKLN

[11] = target: L-type Ca2+ channel (diltiazem site), Cav1.2 alpha-1C (Rattus norvegicus, UniProt P22002); assay: CA+/DILSI/RA Eurofins-Panlabs selectivity data (BI); settings: compound concentration 10 uM, read-out: % Ctrl
[12] = target: AMP-activated protein kinase (AMPK) alpha-1/beta-1/gamma-1 (Homo sapiens) (UniProt P54619+Q9Y478+Q13131); assay: AMPK A1B1G1 Invitrogen selectivity data (BI); type: protein-complex assay; settings: Compound concentration 3.0 uM
[13] = target: Beta-1 adrenergic receptor (Homo sapiens) (UniProt P08588); assay: BETA1/HUM Cerep selectivity data (BI); settings: Compound concentration 20.0 uM
[14] = test system: Epidermal growth factor receptor (Homo sapiens), P00533 [T790M]; assay: EGFR T790M Invitrogen selectivity data (BI); settings: Compound concentration 3.0 uM
[15] = target: SRSF protein kinase 3 (Homo sapiens) (UniProt Q9UPE1); assay: STK23 Invitrogen selectivity data (BI); settings: Compound concentration 3.0 uM
[16] = target: Alpha-1B adrenergic receptor (Rattus norvegicus) (UniProt P15823); assay: ALPHA1B/R Eurofins-Panlabs selectivity data (BI); settings: Compound concentration 10.0 uM
[17] = target: Vascular endothelial growth factor receptor 2 (Homo sapiens) (UniProt P35968); assay: KDR Invitrogen selectivity data (BI); settings: Compound concentration 3.0 uM
[18] = target: Matrix metalloproteinase-9 (Homo sapiens) (UniProt P14780); assay: MMP-9 (H) Cerep selectivity data (BI); settings: Compound concentration 20.0 uM
[19] = target: Rod cGMP-specific 3',5'-cyclic phosphodiesterase subunit alpha (Bos taurus) (UniProt P11541); assay: PDE6_CE Cerep selectivity data (BI); settings: Compound concentration 20.0 uM
[20] = target: Sigma non-opioid intracellular receptor 1 (Homo sapiens) (UniProt Q99720); assay: SIGMA/NS Cerep selectivity data (BI); settings: filed as agonist, Compound concentration 20.0 uM
Sigma non-opioid intracellular receptor 1 (Homo sapiens), sequence (Q99720 whole entry): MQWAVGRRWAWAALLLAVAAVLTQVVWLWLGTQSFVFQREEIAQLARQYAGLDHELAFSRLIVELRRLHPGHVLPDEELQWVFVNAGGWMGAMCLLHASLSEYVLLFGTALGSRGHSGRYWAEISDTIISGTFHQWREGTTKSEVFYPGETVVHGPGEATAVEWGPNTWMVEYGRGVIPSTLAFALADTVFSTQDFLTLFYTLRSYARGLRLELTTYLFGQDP

P2Y purinoceptor 1 (Rattus norvegicus), sequence (P49651 whole entry): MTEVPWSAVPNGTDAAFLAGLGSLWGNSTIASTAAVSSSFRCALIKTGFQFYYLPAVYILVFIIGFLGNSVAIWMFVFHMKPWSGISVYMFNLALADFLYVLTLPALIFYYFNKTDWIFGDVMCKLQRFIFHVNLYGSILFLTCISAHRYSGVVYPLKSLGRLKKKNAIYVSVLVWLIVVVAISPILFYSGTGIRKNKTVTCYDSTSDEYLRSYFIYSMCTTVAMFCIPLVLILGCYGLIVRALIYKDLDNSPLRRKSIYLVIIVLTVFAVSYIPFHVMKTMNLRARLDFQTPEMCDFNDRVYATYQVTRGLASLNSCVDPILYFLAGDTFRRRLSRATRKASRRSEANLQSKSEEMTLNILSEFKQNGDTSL
Alpha-1B adrenergic receptor (Rattus norvegicus), sequence (P15823 whole entry, looked up): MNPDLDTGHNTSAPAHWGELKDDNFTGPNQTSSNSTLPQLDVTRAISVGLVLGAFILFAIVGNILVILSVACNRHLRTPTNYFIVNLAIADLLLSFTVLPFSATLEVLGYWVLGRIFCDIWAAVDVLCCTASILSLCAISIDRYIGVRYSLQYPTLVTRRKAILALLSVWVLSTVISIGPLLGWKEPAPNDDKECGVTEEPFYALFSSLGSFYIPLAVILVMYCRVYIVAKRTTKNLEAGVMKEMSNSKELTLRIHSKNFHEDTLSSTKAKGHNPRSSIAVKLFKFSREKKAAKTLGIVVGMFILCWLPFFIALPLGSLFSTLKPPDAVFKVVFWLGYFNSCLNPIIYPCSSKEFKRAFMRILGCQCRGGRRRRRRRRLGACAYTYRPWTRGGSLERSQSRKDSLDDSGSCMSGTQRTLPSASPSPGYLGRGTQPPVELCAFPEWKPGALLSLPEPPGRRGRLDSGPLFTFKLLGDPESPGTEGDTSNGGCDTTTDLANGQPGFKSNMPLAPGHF
Death-associated protein kinase 1 (Homo sapiens), sequence (P53355 whole entry, looked up): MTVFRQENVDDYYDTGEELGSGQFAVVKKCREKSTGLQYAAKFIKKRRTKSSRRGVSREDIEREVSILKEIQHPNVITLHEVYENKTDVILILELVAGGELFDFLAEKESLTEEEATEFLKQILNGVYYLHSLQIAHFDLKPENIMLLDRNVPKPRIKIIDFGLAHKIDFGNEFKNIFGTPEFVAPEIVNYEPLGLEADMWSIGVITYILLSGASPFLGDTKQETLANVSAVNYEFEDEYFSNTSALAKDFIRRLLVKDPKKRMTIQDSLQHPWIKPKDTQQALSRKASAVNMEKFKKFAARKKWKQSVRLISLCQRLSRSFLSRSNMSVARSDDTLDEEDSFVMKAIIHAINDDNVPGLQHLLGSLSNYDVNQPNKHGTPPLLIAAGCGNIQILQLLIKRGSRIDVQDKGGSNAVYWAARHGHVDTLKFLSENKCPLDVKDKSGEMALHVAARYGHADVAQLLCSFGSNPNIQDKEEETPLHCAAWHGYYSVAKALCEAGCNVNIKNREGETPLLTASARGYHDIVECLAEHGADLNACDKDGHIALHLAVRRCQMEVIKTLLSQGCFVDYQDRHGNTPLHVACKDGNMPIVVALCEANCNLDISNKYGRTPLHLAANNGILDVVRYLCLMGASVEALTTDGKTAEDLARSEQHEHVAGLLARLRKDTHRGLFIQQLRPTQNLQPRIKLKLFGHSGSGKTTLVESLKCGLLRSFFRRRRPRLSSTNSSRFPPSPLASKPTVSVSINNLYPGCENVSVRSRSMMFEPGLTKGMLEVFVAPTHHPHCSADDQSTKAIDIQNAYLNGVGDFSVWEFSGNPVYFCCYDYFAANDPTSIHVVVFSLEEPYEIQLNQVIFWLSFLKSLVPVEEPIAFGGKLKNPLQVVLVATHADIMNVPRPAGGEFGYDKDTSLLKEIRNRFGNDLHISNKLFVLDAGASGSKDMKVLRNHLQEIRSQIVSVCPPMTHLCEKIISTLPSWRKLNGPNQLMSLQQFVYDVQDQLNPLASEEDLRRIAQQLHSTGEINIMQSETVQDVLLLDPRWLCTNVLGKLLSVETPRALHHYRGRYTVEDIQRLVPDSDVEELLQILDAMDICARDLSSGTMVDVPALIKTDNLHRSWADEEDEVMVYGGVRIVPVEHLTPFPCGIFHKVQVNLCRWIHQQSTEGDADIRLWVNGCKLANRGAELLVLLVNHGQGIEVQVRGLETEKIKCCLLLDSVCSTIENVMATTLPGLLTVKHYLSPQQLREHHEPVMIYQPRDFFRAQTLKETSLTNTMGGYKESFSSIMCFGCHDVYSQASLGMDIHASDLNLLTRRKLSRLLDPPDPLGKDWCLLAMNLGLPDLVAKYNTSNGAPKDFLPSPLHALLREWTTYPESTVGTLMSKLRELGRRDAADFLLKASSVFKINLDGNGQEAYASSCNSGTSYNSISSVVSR
Protein kinase C delta type (Homo sapiens), sequence (Q05655 whole entry, looked up): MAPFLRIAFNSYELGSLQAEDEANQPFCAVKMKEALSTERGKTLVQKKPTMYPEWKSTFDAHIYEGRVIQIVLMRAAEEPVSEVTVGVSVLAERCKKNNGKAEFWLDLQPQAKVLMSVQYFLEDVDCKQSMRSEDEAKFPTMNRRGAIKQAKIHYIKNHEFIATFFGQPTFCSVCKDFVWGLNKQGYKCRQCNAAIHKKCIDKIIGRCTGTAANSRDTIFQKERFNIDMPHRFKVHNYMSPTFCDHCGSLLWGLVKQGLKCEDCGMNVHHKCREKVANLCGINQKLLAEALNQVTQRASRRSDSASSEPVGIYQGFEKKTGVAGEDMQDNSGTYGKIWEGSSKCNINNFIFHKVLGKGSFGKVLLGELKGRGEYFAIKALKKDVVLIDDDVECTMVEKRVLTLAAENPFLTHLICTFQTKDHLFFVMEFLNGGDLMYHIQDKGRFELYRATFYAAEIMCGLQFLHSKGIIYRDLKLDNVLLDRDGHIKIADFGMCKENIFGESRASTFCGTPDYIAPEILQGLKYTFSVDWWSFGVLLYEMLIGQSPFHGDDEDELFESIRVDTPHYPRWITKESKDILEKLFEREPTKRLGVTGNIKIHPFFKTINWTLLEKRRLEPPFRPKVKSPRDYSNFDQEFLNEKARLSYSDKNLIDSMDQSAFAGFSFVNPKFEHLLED
Beta-1 adrenergic receptor (Homo sapiens), sequence (P08588 whole entry, looked up): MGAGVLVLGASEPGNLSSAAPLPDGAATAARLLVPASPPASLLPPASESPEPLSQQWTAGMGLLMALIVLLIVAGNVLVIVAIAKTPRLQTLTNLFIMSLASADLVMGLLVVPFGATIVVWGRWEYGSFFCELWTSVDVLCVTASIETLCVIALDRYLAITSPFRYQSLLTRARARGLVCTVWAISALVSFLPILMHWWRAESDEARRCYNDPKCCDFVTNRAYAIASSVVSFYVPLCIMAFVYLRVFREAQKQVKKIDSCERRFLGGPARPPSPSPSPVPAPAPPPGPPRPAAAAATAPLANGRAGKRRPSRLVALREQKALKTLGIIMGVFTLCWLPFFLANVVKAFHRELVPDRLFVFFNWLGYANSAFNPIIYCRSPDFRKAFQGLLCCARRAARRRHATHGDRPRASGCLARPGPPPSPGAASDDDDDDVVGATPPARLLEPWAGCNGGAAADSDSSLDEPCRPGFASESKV
SRSF protein kinase 3 (Homo sapiens), sequence (Q9UPE1 whole entry): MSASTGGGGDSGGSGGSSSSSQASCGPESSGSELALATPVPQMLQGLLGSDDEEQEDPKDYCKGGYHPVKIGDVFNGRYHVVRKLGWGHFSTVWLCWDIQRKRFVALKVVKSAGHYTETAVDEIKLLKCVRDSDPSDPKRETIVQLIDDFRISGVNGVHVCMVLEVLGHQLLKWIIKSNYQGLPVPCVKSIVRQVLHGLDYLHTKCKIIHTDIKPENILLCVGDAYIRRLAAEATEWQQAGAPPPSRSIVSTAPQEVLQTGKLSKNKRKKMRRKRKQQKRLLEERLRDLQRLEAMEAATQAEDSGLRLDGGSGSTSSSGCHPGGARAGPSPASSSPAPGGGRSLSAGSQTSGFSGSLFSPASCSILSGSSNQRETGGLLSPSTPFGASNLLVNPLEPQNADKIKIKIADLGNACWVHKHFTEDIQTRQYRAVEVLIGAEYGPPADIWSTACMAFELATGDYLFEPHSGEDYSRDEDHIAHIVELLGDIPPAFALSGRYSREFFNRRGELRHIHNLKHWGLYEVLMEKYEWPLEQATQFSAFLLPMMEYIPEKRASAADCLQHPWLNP
Serine/threonine-protein kinase PAK 6 (Homo sapiens), sequence (Q9NQU5 whole entry, looked up): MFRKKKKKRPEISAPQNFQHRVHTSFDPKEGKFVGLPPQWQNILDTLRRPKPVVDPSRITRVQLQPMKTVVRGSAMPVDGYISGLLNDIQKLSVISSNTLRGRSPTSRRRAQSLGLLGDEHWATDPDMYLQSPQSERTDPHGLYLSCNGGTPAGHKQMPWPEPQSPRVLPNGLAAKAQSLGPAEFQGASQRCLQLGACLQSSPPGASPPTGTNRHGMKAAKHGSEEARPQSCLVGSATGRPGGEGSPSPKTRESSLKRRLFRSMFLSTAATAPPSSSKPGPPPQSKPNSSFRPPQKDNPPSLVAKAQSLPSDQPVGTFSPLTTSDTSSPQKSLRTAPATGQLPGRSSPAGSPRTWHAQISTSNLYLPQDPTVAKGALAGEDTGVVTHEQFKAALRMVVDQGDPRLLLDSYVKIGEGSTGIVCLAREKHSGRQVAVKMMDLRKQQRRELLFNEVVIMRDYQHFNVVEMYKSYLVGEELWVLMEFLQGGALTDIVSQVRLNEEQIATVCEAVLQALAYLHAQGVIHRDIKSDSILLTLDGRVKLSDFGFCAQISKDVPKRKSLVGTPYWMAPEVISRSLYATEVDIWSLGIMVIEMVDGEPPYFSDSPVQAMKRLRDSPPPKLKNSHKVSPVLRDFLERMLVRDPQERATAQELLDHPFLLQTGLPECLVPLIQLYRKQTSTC

## CN(C)C(=O)Cn1cc(-c2nc([C@@](C)(c3ccc(-c4cnc(N)nc4)cc3)C3CC3)no2)cn1 [BI 665915]
[1]
  residual activity: 95%
[2]
  residual activity: 99%
[3]
  residual activity: 99.5%
[4]
  residual activity: 93.5%
[5]
  residual activity: 103%
[6]
  residual activity: 104%
[7]
  residual activity: 96%
[8]
  residual activity: 33%
[9]
  residual activity: 96%
[10]
  residual activity: 96%
[11]
  activity at 10 µM: 73% (not active)
[12]
  residual activity: 104%
[13]
  residual activity: 100%
[14]
  residual activity: 104%
[15]
  residual activity: 96.5%
[16]
  residual activity: 96%
[17]
  residual activity: 90.5%
[18]
  residual activity: 83%
[19]
  residual activity: 101%
[20]
  residual activity: 99%
